Values joined by “and” are separate entries in the source; they are usually repeats but may differ in a detail not shown here. Identical values can stand only once.
How the values were obtained:
[1] = system: binding of troponin I to the actin-tropomyosin complex; assay: Experiment 4 and comparison example: co-precipitation (binding) of troponin I with the actin-tropomyosin complex in the presence of EGTA; design: species or system swine; details: 10 mM EGTA, 100,000×g 120 min 25° C.
Protocol: The actin-tropomyosin complex and the troponin C-I complex are usually detected by analyzing the precipitate obtained by ultracentrifugation of a mixture containing the actin-tropomyosin complex and the troponin C-I complex for 120 minutes at 100,000×g at 25° C. The binding of the troponin C-I complex to the actin-tropomyosin complex in muscle tissues can be confirmed by the detected actin-tropomyosin complex and the detected troponin C-I complex. For example, when a mixture containing the actin-tropomyosin complex and the troponin C-I complex is ultracentrifuged in the presence of EGTA as a calcium chelating agent (in other words, in the absence of calcium ions), the actin-tropomyosin complex and the troponin C-I complex combine each other to precipitate together. Detection of troponin I in the precipitate using SDS-gel electrophoresis allows confirmation that the precipitate contains a complex formed by the actin-tropomyosin complex and the troponin C-I complex.
A precipitate due to binding of the actin-tropomyosin complex and troponin I is usually not formed when a mixture containing the actin-tropomyosin complex, troponin and propranolol (a β-blocker) used as a therapeutic agent for heart failure is ultracentrifuged at 100,000×g for 120 minutes 25° C.
Swine muscle-derived actin, chicken gizzard-derived tropomyosin and swine myocardium-derived troponin used in this experiment were purchased from Sigma-Aldrich Corporation, and other unspecified reagents used in this experiment were purchased from Wako Pure Chemical Industries Ltd.
A 500 μl sample was prepared by adding 4.2 μg of actin, 2.1 μg of tropomyosin and 14 μg of troponin to 500 μl of a reaction solution containing 60 mM KCl, 20 mM MOPS (3-morpholinopropanesulfonic acid), 2 mM of MgCl2, 0.05 μg of pepstatin A, and 15 mM 2-mercaptoethanol. After centrifugation of this sample at 2,000×g for 10 minutes at 25° C., the precipitate was removed and the resulting supernatant was distributed to separate test tubes containing 10 mM of EGTA, and each tube was determined as a test sample.
Each test sample was reacted for 120 minutes at 25° C. and centrifuged at 100,000×g for 120 minutes at 25° C., and the supernatants were removed. After reaction solution was gently added to the removed precipitate so as not to suspend the precipitate, the precipitate was again removed by suction, washed, and determined as a test precipitate.
A sample buffer for polyacrylamide gel electrophoresis (SDS-PAGE) was added to each washed test precipitate and mixed well to suspend the test precipitate. The resulting suspension was electrophoresized on a gel (PAG MINI “No. 1” 10/20) for about 1 hour at 40 mA. After electrophoresis, the suspension was silver-stained using “Daiichi” 2D-silver staining reagent (Daiichi Pure Chemicals Co., Ltd), and washed with distilled water and dried. The amount of precipitate in each silver-stained protein band obtained by gel electrophoresis was quantitated using a densitometer.
The amounts of precipitate of troponin I in the second to fifth test precipitates were calculated as ratios of the amount of precipitate of troponin I in the first test precipitate, which was obtained without the compound (the concentration of the compound was 0 M).
The affinity of troponin I for the actin-tropomyosin complex was measured using the same method as in Experiment 4, but using propranolol (a β-blocker which is used as a therapeutic agent for heart failure) for comparison with the compound in the invention.
A 500 μl sample was prepared by adding 4.2 μg of actin, 2.1 μg of tropomyosin and 14 μg of troponin I to 500 μl of a reaction solution containing 60 mM KCl, 20 mM MOPS (3-morpholinopropanesulfonic acid), 2 mM MgCl2, 0.05 μg of pepstatin A, and 15 mM 2-mercaptoethanol. […]

white rabbits = assay: Experiment 9: effect of the compound on blood pressure in rabbits; assay type: in vivo, rabbit; details: for Mean blood pressure relative to before administration (100%): before administration (defined as 100%)
Protocol: Effects of the compound on blood pressure were examined in the same way as described in Experiment 2. In this experiment, Control and Tests 6-9 were anesthetized with a single intravenous injection of 20 mg/kg methohexital sodium under artificial respiration (Type AR1Narishige Group) using endotracheal intubation. The 1,4-benzothiazepine derivative or pharmaceutically acceptable salt thereof was used as the compound in this experiment.
Five white rabbits (weight: 2.7-2.9 kg) were used in this experiment: a rabbit (weight: 2.8 kg, Control) that received control solution, a rabbit (weight: 2.7 kg, Test 6) that received the compound at 0.04 mg/kg/min, a rabbit (weight: 2.7 kg, Test 7) that received the compound at 0.04 mg/kg/min, a rabbit (weight: 2.9 kg, Test 8) that received the compound at 0.4 mg/kg/min, and a rabbit (weight: 2.8 kg, Test 9) that received the compound at 0.4 mg/kg/min.
Each rabbit was anesthetized with a single intravenous injection of 20 mg/kg methohexital sodium under artificial respiration (Type AR1 Narishige Group) using endotracheal intubation. Subsequently, α-chloralose was injected into the ear veins at 90 mg/kg/20 min. A DMSO solution of the compound was prepared by dissolving 100 mg of the compound in 1 ml of dimethylsulfoxide (DMSO), and stored at 4° C.
In this experiment, injection catheters for the compound for administration of drugs were inserted into the right external jugular veins of the rabbits and microchip catheters (SPC-320, Millar) for blood pressure measurement were inserted via the right common arteries. A 2-lead electrocardiogram was examined and blood pressure, cardiac rate, and electrocardiogram of the rabbits were monitored for 10 minutes. When the data stabilized, the electrocardiogram, systolic pressure and diastolic pressure of each rabbit were recorded on a personal computer via an A/D converter. The Control rabbit was administered 5% dextrose solution containing 0.1% DMSO as a control solution for 10 minutes at 0.1 ml/min. Test 6 and 7 rabbits were administered 5% dextrose containing the compound at 0.1 ml/min, and then the compound at an infusion rate of 0.04 mg/kg/min. Test 8 and 9 rabbits were administered 5% dextrose containing the compound at 0.1 ml/min, and then the compound at an infusion rate of 0.4 mg/kg/min.
Systolic pressure (mmHg) and diastolic pressure (mmHg) of the Control and Test rabbits were measured over 5 heart beats before administration of the solution, and 5 and 10 minutes after administration. The mean blood pressure (mmHg) was calculated from the systolic pressure (mmHg) and the diastolic pressure (mmHg), using the formula: mean blood pressure (mmHg)=[(systolic pressure+diastolic pressure)×½].

Precipitate of troponin I (ratio to the sample without drug) ([1]; drug concentration 10^−4 mol): 2.8 | Precipitate of troponin I (ratio to the sample without drug) ([1]; drug concentration 10^−5 mol): 2.2 | Precipitate of troponin I (ratio to the sample without drug) ([1]; drug concentration 10^−6 mol): 1.8 | Precipitate of troponin I (ratio to the sample without drug) ([1]; drug concentration 10^−7 mol): 1.2
SMILES: COc1ccc2c(c1)CN(C(=O)CCN1CCC(Cc3ccccc3)CC1)CCS2 [the compound, 4-[3-(4-benzylpiperidine-1-yl)propionyl]-7-methoxy-2,3,4,5-tetrahydro-1,4-benzothiazepine]
Mean blood pressure (white rabbits; infusion rate 0.04 mg/kg/min, after 5 minutes): 79.5 mmHg and 82.0 mmHg | Mean blood pressure (white rabbits; infusion rate 0.04 mg/kg/min, after 10 minutes): 85.9 mmHg and 93.4 mmHg | Mean blood pressure (white rabbits; infusion rate 0.04 mg/kg/min, before administration): 85.6 mmHg and 87.7 mmHg | Mean blood pressure relative to before administration (100%) (white rabbits; infusion rate 0.04 mg/kg/min): (100%) | Mean blood pressure (white rabbits; infusion rate 0.4 mg/kg/min, after 5 minutes): 35.7 mmHg and 64.5 mmHg | Mean blood pressure (white rabbits; infusion rate 0.4 mg/kg/min, after 10 minutes): 41.7 mmHg and 46.3 mmHg | Mean blood pressure (white rabbits; infusion rate 0.4 mg/kg/min, before administration): 74.0 mmHg and 97.7 mmHg | Mean blood pressure relative to before administration (100%) (white rabbits; infusion rate 0.4 mg/kg/min): (100%)

From patent publication US20070219180A1, “Muscle Relaxtion Accelerator and Therapeutic Agent for Muscular Tissue Diseases Such as Muscle Relaxation Failure” (priority 2004, published 2007)
